Test results as given in publication PMC4183699, “A Relay Network of Extracellular Heme-Binding Proteins Drives C. albicans Iron Acquisition from Hemoglobin” (PLoS Pathogens, 2014).

T1: Rbt5(23–219)-Myc-6×His (C. albicans, UniProt Q59UT4 23-219)
T1 construct: Rbt5, C. albicans CFEM protein, residues 23-219: from the predicted signal peptide cleavage site to the predicted GPI anchor addition site; RBT5 nucleotides +67 to +657 cloned EcoRI-XbaI into pPICZalphaA (KB2258); Apo-protein (heme removed with 3 M imidazole); The vector pPICZalphaA may leave a few residues at the N-terminus after the alpha-factor signal is cut; also called rRbt5; recombinant …
T1 sequence: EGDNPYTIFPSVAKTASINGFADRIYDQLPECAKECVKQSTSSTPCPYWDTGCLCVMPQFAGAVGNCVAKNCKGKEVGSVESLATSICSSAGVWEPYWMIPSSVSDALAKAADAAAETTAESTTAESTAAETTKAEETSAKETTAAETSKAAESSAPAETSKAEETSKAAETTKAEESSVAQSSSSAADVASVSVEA

B1: Pga7(18–195)-Myc-6×His (domain or fragment)
chain: NFGTYPKVPKTASINGFADPIYDLLPDCAKECVKFSTSNTPCPYWDTGCFCVMPQWAGLVGQCVAQKCKGEDVASARFLATSLCSVVGANTWMMPASISSMLSTAAGDAKEVTTIEGKTAKSWVTAPGSAAGSVVSETGSASETGSSESAQSTTTGSSSTGSSSTDSSSSSSSSPSSS
notes: Pga7, C. albicans CFEM protein, residues 18-195: from the predicted signal peptide cleavage site to the predicted GPI anchor addition site; PGA7 nucleotides +52 to +585 cloned EcoRI-XbaI into pPICZalphaA (KB2259); Used as apo-protein (heme removed) or as holo-protein (loaded with heme, not covalent); both are this one construct; The vector pPICZalphaA may leave a few residues at the N-terminus …

What was measured:
Rbt5 = biological target: T2, Rbt5 (Candida albicans, UniProt Q59UT4); experiment: ITC; also hemin-agarose pull-down, size exclusion co-elution, Soret peak; type: binding
T2 construct: Rbt5_23–219 (C-terminal Myc-6×His, expressed in Pichia pastoris)

Pga7 = biological target: T3, Pga7 (Candida albicans, UniProt Q59UT5); experiment: ITC; also Soret-shift UV-Vis titration ([…]), 1H NMR, hemin-agarose pull-down; type: binding
T3 construct: Pga7_18–195 (C-terminal Myc-6×His, expressed in Pichia pastoris)

Rbt5(23–219)-Myc-6×His = biological target: T1, Rbt5(23–219)-Myc-6×His; experiment: SPR; Biacore T200; apo-Pga7(18–195), apo-Rbt5(23–219) and apo-Rbt5(23–219) D72A immobilised on a CM-5 chip by amine chemistry; 3 µM holo-Pga7(18–195) (with heme) injected for 60 sec; double-blanked against an empty cell and buffer; conditions: both partners purified

Molecule	Kd (Rbt5) [nM]	Kd (Pga7) [nM]	binding result (Rbt5(23–219)-Myc-6×His)
C=CC1=C(C)C2=Cc3c(C=C)c(C)c4[n]3[Fe]([Cl])[n]3c(c(C)c(CCC(=O)O)c3=CC3=NC(=C4)C(C)=C3CCC(=O)O)=CC1=N2 [hemin]	5400	65	
B1			binds
